Experiments:
[1] = system: DNA; assay: Ethidium bromide-DNA fluorescence quenching exclusion assay; type: binding; details: 2 mM HEPES, 150 mM NaCl, 10 μm EDTA, pH 7.4; 60 minutes incubation; triplicate
Protocol: Exclusion assay (adapted from; A. J. Geall, I. S. Blagbrough, Journal of Pharmaceutical and Biomedical Analysis 22 (2000) 849-859)
(§1) Five μg (5 μl of 1 mg/mL solution) of DNA and varying amount of amphiphiles (dependent on the Amphiphile/DNA ratio required) were diluted to 1000 μL with buffer (2 mM HEPES, 150 mM NaCl, 10 μm EDTA, pH 7.4). The solutions were mixed on a bench top vortex and incubated for 60 minutes at ambient temperature. Each solution was then diluted to 3 mL with buffer (2 mM HEPES, 150 mM NaCl, 10 μm EDTA, pH 7.4). Immediately prior to the analysis, 3 μL of Eth Br solution (0.6 mg/ml, 1.3 mM, effectively present in excess) was added, the sample was mixed on a bench top vortex, and the fluorescence measured. The fluorescence was expressed as the percentage of the maximum fluorescence signal when EthBr was bound to the DNA in the absence of amphiphile. Assays were run in triplicate. […] Compound 30a bound DNA and displaced EthBr.

[2] = system: chinese hamster ovary (CHO) cells; assay: B-galactosidase transfection assay; type: cell-based; details: varying concentrations of lipid and DNA, triplicate, 96 well plates, chemiluminescent reporter
Protocol: Transfection assays were performed using the well established B-galactosidase transfection assay. In these experiments the B-galactosidase gene is transfected into cells. Next, the expressed enzyme then cleaves a chemiluminescent reporter that is detected. The assays are conducted with chinese hamster ovary (CHO) cells following a standard lipid transfection procedure. The procedure is performed on varying concentrations of lipid and DNA in triplicate in 96 well plates.

[3] = system: DNA; assay: Exclusion assay after addition of an esterase (DNA release); type: biochemical; details: esterase added to the amphiphile-DNA solution; EthBr intercalates again
Protocol: as §1

[4] = Gel formation in DMSO; type: physicochemical; details: sonication (30 sec) or heating to 60 C for 5 minutes and cooling to room temperature
Protocol: The gels can be produced by either 1) sonication (30 sec) or by heating the suspensions to 60 C for 5 minutes and cooling to room temperature.

Row | Molecule | DNA binding and displacement of EtBr [1] | Transfection of the B-galactosidase gene [2] | DNA release from the amphiphile after esterase cleavage of the ester linkages [3] | Gel formation in DMSO [4]
1 | CC(=O)OCC(C[N+](C)(C)C)OC(C)=O.[I-] (stereo not shown) [Compound 36, (2,3-Diacetoxy-propyl)-trimethyl-ammonium; iodide] | did not bind DNA and displace EthBr | minimal transfection activity | – | –
2 | C[N+](C)(C)CC(COC(=O)CCCCCCCCCCC(=O)OCc1ccccc1)OC(=O)CCCCCCCCCCC(=O)OCc1ccccc1.[I-] (stereo not shown) [Compound 30a, [2,3-Bis-(11-benzyloxycarbonyl-undecanoyloxy)-propyl]-trimethyl-ammonium; iodide] | bound DNA and displaced EtBr | transfected the B-galactosidase gene | releasing the DNA from the amphiphile | –
3 | Trimethylamino-[G1]-PGLSA dendrimer iodide [Compound 47] | bound DNA and displaced EtBr | – | – | –
4 | C[N+](C)(C)CC(COC(=O)CCCCCCCCCCC(=O)O)OC(=O)CCCCCCCCCCC(=O)O.[I-] (stereo not shown) [Compound 35, [2,3-Bis-(11-carboxy-undecanoyloxy)-propyl]-trimethyl-ammonium; iodide] | did not bind DNA and displace EthBr | minimal transfection activity | – | –
5 | Trimethylamino-[G0]-PGLSA dendrimer iodide [Compound 44] | bound DNA and displaced EtBr | – | – | –
6 | C[N+](C)(C)CC(COC(=O)CCCCCCCCCCCOCc1ccccc1)OC(=O)CCCCCCCCCCCOCc1ccccc1.[I-] (stereo not shown) [Compound 40, [2,3-Bis-(12-benzyloxy-dodecanoyloxy)-propyl]-trimethyl-ammonium; iodide] | – | transfected the B-galactosidase gene | – | –
7 | CCCCCCCCCCCCCC(=O)OCC(COC(=O)CCCCCCCCCCCCC)OC(=O)CCC(=O)OCC(COC(=O)CCC(=O)OC(COC(=O)CCCCCCCCCCCCC)COC(=O)CCCCCCCCCCCCC)OC(=O)CCC(=O)OC(COC(=O)CCC(=O)OCC[N+](C)(C)C)COC(=O)CCC(=O)OCC[N+](C)(C)C [Compound 85] | bound DNA and displaced EtBr | – | – | –
8 | CC(C)(C)OC(=O)CCCCCCCCCCC(=O)OCC(C[N+](C)(C)C)OC(=O)CCCCCCCCCCC(=O)OC(C)(C)C.[I-] (stereo not shown) [Compound 34, [2,3-Bis-(11-tert-butoxycarbonyl-undecanoyloxy)-propyl]-trimethyl-ammonium; iodide] | bound DNA and displaced EtBr | – | releasing the DNA from the amphiphile | –
9 | CCCCCCCCCCCCCCCC(=O)O[C@@H]1[C@H](OC(=O)CCCCCCCCCCCCCCC)[C@@H](CO)O[C@H]1n1ccc(=O)[nH]c1=O [2′,3′dipalmitoyl uridine, 2′,3′palmitoyl uridine] | – | – | – | form gels in DMSO
10 | C[N+](C)(C)CC(COC(=O)NCCCCCCCCCCCC(=O)OCC1CC(=O)Oc2cc(O)c(Br)cc21)OC(=O)NCCCCCCCCCCCC(=O)OCC1CC(=O)Oc2cc(O)c(Br)cc21.[I-] (stereo not shown) [Compound 26, {2,3-Bis-[11-(6-bromo-7-hydroxy-2-oxo-chroman-4-ylmethoxycarbonyl)-undecylcarbamoyloxy]-propyl}-trimethyl-ammonium iodide] | bound DNA and displaced EtBr | – | – | –
11 | C[N+](C)(C)CC(COC(=O)CCCCCCCCCCC(=O)OCc1ccccc1[N+](=O)[O-])OC(=O)CCCCCCCCCCC(=O)OCc1ccccc1[N+](=O)[O-].[I-] (stereo not shown) [Compound 30b, {2,3-Bis-[11-(2-nitro-benzyloxycarbonyl)-undecanoyloxy]-propyl}-trimethyl-ammonium; iodide] | bound DNA and displaced EtBr | – | – | –

From patent US7507859B2, “Functional synthetic molecules and macromolecules for gene delivery” (Fifth Base LLC, priority 2003, dated 2009)
